This note sets out measurements from patent US20200165194A1, “ADDITIVE COMPOSITION FOR CULTURE MEDIUM, ADDITIVE COMPOUND FOR CULTURE MEDIUM, AND METHOD FOR CULTURE OF CELLS OR TISSUE USING SAME” (NISSAN CHEMICAL CORPORATION, priority 2017, published 2020).

Data set [1] concerns Mouse embryonic fibroblast C3H10T1/2. In words: Fibroblast strain C3H10T1/2, 3D culture, ATP assay (Experimental Example 11). The format is cell-based. Particulars: for proliferation activity (in words): fibroblast under three-dimensional conditions. The procedure: Mouse embryonic fibroblast C3H10T1/2 (manufactured by DS PHARMA BIO MEDICAL) was cultured in a BME medium (manufactured by Thermo Fisher Scientific) containing 10 (v/v) % FBS (manufactured by Corning) and the L-glutamine-penicillin-streptomycin stabilizing solution (manufactured by Sigma-Aldrich). The above-mentioned cells in the logarithmic growth phase were washed with PBS, a 0.25 w/v % trypsin-1 mmol/L EDTA (ethylenediaminetetraacetic acid) solution (manufactured by Wako Pure Chemical Industries, Ltd.) was added, and the cells were detached by incubating at 37° C. for 3 min. Each medium was added, the mixture was centrifuged, and the supernatant was removed.
(§1) The aforementioned various cells were suspended in respective deacylated gellan gum-containing or not containing media (deacylated gellan gum concentration was 0.015 w/v %), and seeded in a 96 well low attachment U-bottom plate (manufactured by Corning, #4520, deacylated gellan gum-free medium) at a cell concentration of 700-2000 cells/90 μL/well (3D culture). […] The amount of each compound solution to be added was 10 μL/well. As a control, a DMSO solution dissolved in a medium was added (DMSO final concentration 0.1%). […] When compared with the compound no-addition (control), one showing a value of not more than 119% as -, one showing a value of not less than 120% as ◯, and one showing a value of not less than 150% as ⊚ are shown in the eighteenth table. Unperformed test is left blank.

The test system of data set [2] is human ovarian cancer cell line SKOV3. In words: Action on SKOV3 cell-2: 3D (deacylated gellan gum) and 2D culture, EGF medium, ATP assay (Experimental Example 3). The note with it: for viability at 1 µM / viability at 5 µM / viability at 10 µM / viability at 20 µM: Homo sapiens, SK-OV-3, 96 h, 4 days, compound non-addition = 100%.
Experimental: According to the method of patent document 1 (WO 2014/017513), a composition of McCoy's 5a medium (manufactured by Sigma-Aldrich) containing 0.015% (w/v) deacylated gellan gum (KELCOGEL CG-LA, manufactured by Sansho Co., Ltd.) and 15% (v/v) FBS, 30 ng/mL human EGF (manufactured by PEPROTECH) was prepared using FCeM-series Preparation Kit (manufactured by Wako Pure Chemical Industries, Ltd.). In a single layer culture, a non-addition medium composition not containing deacylated gellan gum was prepared. Then, human ovarian cancer cell line SKOV3 (manufactured by DS PHARMA BIO MEDICAL) was suspended in the above-mentioned medium composition added with deacylated gellan gum, and dispensed into the wells of a 384 well flat bottom Ultr-low Attachment surface microplate (manufactured by Corning Incorporated, #3827) at 1000 cells/36 μL/well (three-dimensional culture (3D)). In a single layer culture (2D), human ovarian cancer cell line SKOV3 was suspended in the above-mentioned medium composition not containing deacylated gellan gum, and dispensed into the wells of a 384 well flat bottom microplate (manufactured by Corning Incorporated, #3712) at 400 cells/36 μL per well. After dispensing, the compound to be used in the present invention dissolved in dimethyl sulfoxide (DMSO) was added by 4 μL each at a final concentration of 0, 1, 5, 10, 20 μM, and continuously cultured for 4 days. Each plate was cultured in a standing state in a CO2 incubator (37° C., 5% CO2) for 4 days. An ATP reagent (40 μL) (CellTiter-Glo (registered trade mark) Luminescent Cell Viability Assay, manufactured by Promega) was added to the culture medium on day 4, and the mixture was stirred by a plateshaker (manufactured by AS ONE Corporation, Micro plate mixer NS-P) at room temperature for 15 min. The luminescence intensity (RLU value) was measured by EnSpire (manufactured by Perkin Elmer) and the luminescence value of the medium alone was subtracted to measure the number of viable cells.
For another data set, the system named is plural animal cell lines. In words: Animal cell lines, summary over the cell lines (Experimental Example 15). The format is cell-based. Particulars: animal cell lines under three-dimensional conditions. From the text: (§2) Various animal cell lines were precultured (single layer culture) as follows in respective media. Chinese hamster ovary-derived cell line CHO-K1 (manufactured by DS PHARMA BIO MEDICAL, 10% fetal bovine serum (FBS, manufactured by Corning)-containing Ham's F-12 medium (manufactured by Fujifilm Wako Pure Chemical Corporation)), Cercopithecus aethiops kidney epithelium-derived cell line Vero (purchased from JCRB cell bank, 5% FBS-containing Medium 199 medium (manufactured by Life Technologies)). The above-mentioned cells in the logarithmic growth phase were washed with PBS, a 0.25 w/v % trypsin-1 mmol/L EDTA (ethylenediaminetetraacetic acid) solution (manufactured by Fujifilm Wako Pure Chemical Corporation) was added, and adherent cells were detached by incubating at 37° C. for 3 min. Each medium was added and the mixture was centrifuged and resuspended in the same medium.
(§3) The aforementioned various animal cells were suspended in respective deacylated gellan gum-containing or not containing media (deacylated gellan gum concentration was 0.02 w/v % in Ham's F-12 medium, 0.015 w/v % in Medium 199 medium), and seeded in a 96 well low attachment U-bottom plate (manufactured by Corning, #4520, deacylated gellan gum-free medium), or a low attachment flat bottom plate (manufactured by Corning, #3474, deacylated gellan gum-containing medium) at a cell concentration of 700-2000 cells/90 μL/well (all 3D culture). […] The amount of each compound solution to be added was […]. As a control, a DMSO solution dissolved in a medium was added (DMSO final concentration 0.1%). […] When compared with the compound non-addition (control), one showing a value of not more than 119% as -, one showing a value of not less than 120% as ◯, and one showing a value of not less than 150% as ⊚ are shown in the twenty-third table and the twenty-fourth table.

Data set [3] concerns Cercopithecus aethiops kidney epithelium-derived cell line Vero. In words: Animal cell lines, 3D culture, ATP assay (Experimental Example 15). The format is cell-based.
Excerpt: as §2, §3

The test system of data set [4] is Chinese hamster ovary-derived cell line CHO-K1. The data set is described as above. The note with it: 4 days; for viability at 5 µM / viability at 10 µM: Cricetulus griseus, CHO-K1, 96 h. It is filed as cell-based.
Excerpt: as §2, §3

In data set [5] the test system is a plurality of cancer cell lines. In words: Various human cancer cells-2, summary over the cell lines (Experimental Example 6). The format is cell-based. The note with it: cancer cell lines under three-dimensional conditions. The procedure: Various human-derived cancer cells were precultured (single layer culture) in respective media shown below. […] The above-mentioned cells in the logarithmic growth phase were washed with PBS, a 0.25 w/v % trypsin-1 mmol/L EDTA (ethylenediaminetetraacetic acid) solution (manufactured by Wako Pure Chemical Industries, Ltd.) was added, and adherent cells were detached by incubating at 37° C. for 1-5 min. Each medium was added and the mixture was centrifuged. After resuspension in the same medium, each cell was recovered.
as §1, with “gum-free medium), or a low attachment flat bottom plate (manufactured by Corning, #3474, deacylated gellan gum-containing” for “gum-free”, “700-12000” for “700-2000”, “(all 3D” for “(3D”, “eleventh table and the twelfth” for “eighteenth”

The mark [6] stands for this setting: read-out: relative value of RLU (number of viable cells), 2D single layer culture.
Where [7] appears, read: read-out: relative value of RLU (number of viable cells), 3D culture (deacylated gellan gum).
Where [8] appears, read: single layer culture (2D) of SKOV3 cells.
Setting [9] is: three-dimensional culture (3D) of SKOV3 cells.
Where [10] appears, read: low attachment U-bottom plate, 10 μM, 4 days.

Read-outs that look alike come from different tables or passages of the source.

As for `CC/C(=N\NC(=O)NCc1ccccc1)c1ccc(O)c(C)c1O` [k-1:I-1], the viability at 1 µM in data set [1] (Mus musculus, C3H 10T1/2, 96 h, C3H10T1/2, low attachment U-bottom plate, 1 μM, 4 days, read-out: number of viable cells (RLU), relative value to control (100%)) was above 120%; in data set [2] (setting [6]) it was 99%; in data set [2] (setting [7]) it was 106%. In addition, the viability at 5 µM was above 120% in data set [1] (Mus musculus, C3H 10T1/2, 96 h, C3H10T1/2, low attachment U-bottom plate, 5 μM, 4 days, read-out: number of viable cells (RLU), relative value to control (100%)); 98% in data set [2] (setting [6]); 111% in data set [2] (setting [7]); above 120% in data set [3] (Chlorocebus sabaeus, 96 h, low attachment U-bottom plate, 5 μM, 4 days, read-out: number of viable cells (RLU), relative value to control (100%)); below 119% in data set [3] (Chlorocebus sabaeus, 96 h, low attachment flat bottom plate (deacylated gellan gum-containing medium), 5 μM, 4 days, read-out: number of viable cells (RLU), relative value to control (100%)); below 119% in data set [4] (CHO-K1, low attachment U-bottom plate, read-out: number of viable cells (RLU), relative value to control (100%)). Further, the viability at 5 µM in data set [4] (CHO-K1, low attachment flat bottom plate (deacylated gellan gum-containing medium), read-out: number of viable cells (RLU), relative value to control (100%)) is below 119%. In addition, the “proliferation activity (in words)” value is “promoted proliferation activity in fibroblast” in data set [1], “promoted proliferation activity in plural animal cell lines” in the data set with plural animal cell lines and “promoted proliferation activity in a plurality of cancer cell lines” in data set [5]. Further, the viability at 10 µM in data set [2] (setting [6]) was 94%; in data set [2] (setting [7]) it was 123%; in data set [3] (Chlorocebus sabaeus, 96 h, low attachment flat bottom plate (deacylated gellan gum-containing medium), 10 μM, 4 days, read-out: number of viable cells (RLU), relative value to control (100%)), below 119%; in data set [4] (CHO-K1, low attachment U-bottom plate, 10 μM, read-out: number of viable cells (RLU), relative value to control (100%)), below 119%; in data set [4] (CHO-K1, low attachment flat bottom plate (deacylated gellan gum-containing medium), 10 μM, read-out: number of viable cells (RLU), relative value to control (100%)) it was below 119%. For the same compound, the values for the viability at 20 µM in data set [2] (setting [6]) and in data set [2] (setting [7]) were 92% and 141%, respectively. Moreover, the “cell proliferation promoting effect (in words)” value was “a favorable cell proliferation promoting effect was not observed” in data set [2] (setting [8]) and “exhibited cell proliferation promoting effect at a wide concentration range” in data set [2] (setting [9]). Further, in data set [3] (setting [10]), the “number of viable cells (RLU), relative value to control (100%)” value is on record as “⊙”.

For the compound `CC/C(=N\NC(=O)NCc1cccc(O)c1)c1ccc(O)c(C)c1O` [k-1:J-1], the “number of viable cells (RLU), relative value to control (100%)” value in data set [1] (C3H10T1/2, low attachment U-bottom plate, 1 μM, 4 days) was “⊙”; in data set [3] (low attachment U-bottom plate, 5 μM, 4 days) it was “⊙”; in data set [3] (setting [10]), “⊙”; in data set [3] (low attachment flat bottom plate (deacylated gellan gum-containing medium), 10 μM, 4 days), “⊙”; in data set [4] (CHO-K1, low attachment flat bottom plate (deacylated gellan gum-containing medium), 10 μM), “⊙”. Besides, the “proliferation activity (in words)” value in data set [1] is reported as “promoted proliferation activity in fibroblast”; with plural animal cell lines it was “promoted proliferation activity in plural animal cell lines”; in data set [5] it was “promoted proliferation activity in a plurality of cancer cell lines”. In addition, the viability at 1 µM in data set [2] (setting [6]) worked out at 93%; in data set [2] (setting [7]), 116%. Besides, the viability at 5 µM in data set [2] (setting [6]) was 96%; in data set [2] (setting [7]), 170%; in data set [3] (Chlorocebus sabaeus, 96 h, read-out: number of viable cells (RLU), relative value to control (100%)), 120 to 150%; in data set [4] (read-out: number of viable cells (RLU), relative value to control (100%), CHO-K1, low attachment U-bottom plate), below 119%; in data set [4] (read-out: number of viable cells (RLU), relative value to control (100%), CHO-K1, low attachment flat bottom plate (deacylated gellan gum-containing medium)), 120 to 150%. The viability at 10 µM was 97% in data set [2] (setting [6]); 186% in data set [2] (setting [7]); below 119% in data set [4] (read-out: number of viable cells (RLU), relative value to control (100%), CHO-K1, low attachment U-bottom plate, 10 μM). The viability at 20 µM in data set [2] (setting [6]) amounted to 102%; in data set [2] (setting [7]) it was 173%. For the same compound, the “cell proliferation promoting effect (in words)” value is listed as “a favorable cell proliferation promoting effect was not observed” in data set [2] (setting [8]) and “exhibited cell proliferation promoting effect at a wide concentration range” in data set [2] (setting [9]).
